According to patent publication US6737383B1, “Herbicidal oxadiazolidines” (priority 1999, dated 2004):

Experiments:
duck salad = test: Test B flood test duck salad; format: in vivo, Heteranthera limosa
Method in brief: (§1)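 Flood test on plants grown to the 2-leaf stage; treated plants kept in greenhouse twelve to sixteen days, then visually rated against controls on a 0 (no effect) to 10 (complete control) scale.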

rape = test: Test B pre/postemergence rape; format: in vivo, Brassica napus
Method in brief: (§2)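 Herbicidal effect was estimated by eye on a ten-point control scale after plants spent twelve to sixteen days in a greenhouse following soil or foliar treatment. Foliar sprays targeted plants at one to four leaves; all doses were formulated in a non-phytotoxic solvent with surfactant.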

cocklebur = test: Test B pre/postemergence cocklebur; format: in vivo, Xanthium strumarium
Method in brief: as §2

bedstraw = test: Test B pre/postemergence bedstraw; format: in vivo, Galium aparine
Method in brief: as §2

morningglory = test: Test B pre/postemergence morningglory; format: in vivo, Ipomoea hederacea
Method in brief: as §2

corn = test: Test B pre/postemergence corn; format: in vivo, Zea mays
Method in brief: as §2

rice = test: Test B flood test rice; format: in vivo, Oryza sativa
Method in brief: as §1

bamyardgrass = test: Test B flood test barnyardgrass; format: in vivo, Echinochloa crus-galli
Method in brief: as §1

wild oat = test: Test B pre/postemergence wild oat; format: in vivo, Avena fatua
Method in brief: as §2

wheat = test: Test B pre/postemergence wheat; format: in vivo, Triticum aestivum
Method in brief: as §2

pigweed = test: Test B pre/postemergence pigweed; format: in vivo, Amaranthus retroflexus
Method in brief: as §2

surinam grass = test: Test B pre/postemergence surinam grass; format: in vivo, Brachiaria decumbens
Method in brief: as §2

blackgrass = test: Test B pre/postemergence blackgrass; format: in vivo, Alopecurus myosuroides
Method in brief: as §2

smallflower flatsedge = test: Test B flood test smallflower flatsedge; format: in vivo, Cyperus difformis
Method in brief: as §1

purple nutsedge = test: Test B pre/postemergence purple nutsedge; format: in vivo, Cyperus rotundus
Method in brief: as §2

velvetleaf = test: Test B pre/postemergence velvetleaf; format: in vivo, Abutilon theophrasti
Method in brief: as §2

[1] = Rate 62 g/ha, headed Pre-emergence (flood test species), scale 0 to 10 (0 no effect, 10 complete control)
[2] = Rate 125 g/ha, Pre-emergence, flood test species, scale 0 to 10 where 0 is no effect and 10 is complete control
[3] = Rate 250 g/ha, Pre-emergence, flood-test species, scale 0 to 10, 0 is no effect, 10 is complete control
[4] = Rate 500 g/ha, Pre-emergence, flood test species, scale 0 to 10 (0 no effect, 10 complete control)
[5] = Preemergence, Rate 62 g/ha, scale of 0 to 10 where 0 is no effect and 10 is complete control
[6] = Preemergence, Rate 250 g/ha, scale of 0 to 10 where 0 is no effect and 10 is complete control
[7] = Preemergence, Rate 500 g/ha, scale of 0 to 10 where 0 is no effect and 10 is complete control
[8] = Rate 62 g/ha, Postemergence, scale of 0 to 10 where 0 is no effect and 10 is complete control
[9] = Rate 125 g/ha, Postemergence, scale 0 to 10
[10] = Rate 125 g/ha, Preemergence, scale of 0 to 10 where 0 is no effect and 10 is complete control
[11] = Rate 500 g/ha, Postemergence, scale 0 to 10, 0 no effect, 10 complete control

## Cc1nc(C)c(Cn2c(=O)on(C(=O)N(c3ccc(F)cc3F)C(C)C)c2=O)s1 [Compound 233]
Duck salad; [1]
  Ducksalad plant response rating: 0
Duck salad; [2]
  Ducksalad plant response rating: 0
Duck salad; [3]
  Ducksalad plant response rating: 0
Duck salad; [4]
  Ducksalad plant response rating: 0
rape; [5]
  Rape plant response rating: 0
rape; [6]
  Rape plant response rating: 0
rape; [7]
  Plant response rating, Rape: 3
rape; [8]
  Rape plant response rating: 2
rape; [9]
  Rape plant response rating: 2
rape; [10]
  Rape plant response rating: 0
rape; Rate 250 g/ha, Postemergence
  Plant response rating (0 to 10; 0 is no effect, 10 is complete control), Rape: 2
rape; [11]
  Rape plant response rating: 3
cocklebur; [5]
  Cocklebur plant response rating: 0
cocklebur; [6]
  Cocklebur plant response rating: 0
cocklebur; [7]
  Plant response rating, Cocklebur: 0
cocklebur; [8]
  Cocklebur plant response rating: 0
cocklebur; [9]
  Cocklebur plant response rating: 2
cocklebur; [10]
  Cocklebur plant response rating: 0
cocklebur; Rate 250 g/ha, Postemergence
  Plant response rating (0 to 10; 0 is no effect, 10 is complete control), Cocklebur: 2
cocklebur; [11]
  Cocklebur plant response rating: 2
bedstraw; [5]
  Bedstraw plant response rating: 0
bedstraw; [6]
  Bedstraw plant response rating: 0
bedstraw; [7]
  Plant response rating, Bedstraw: 0
bedstraw; [8]
  Bedstraw plant response rating: 0
bedstraw; [9]
  Bedstraw plant response rating: 0
bedstraw; [10]
  Bedstraw plant response rating: 0
bedstraw; Rate 250 g/ha, Postemergence
  Plant response rating (0 to 10; 0 is no effect, 10 is complete control), Bedstraw: 3
bedstraw; [11]
  Bedstraw plant response rating: 5
morningglory; [5]
  Morningglory plant response rating: 0
morningglory; [6]
  Morningglory plant response rating: 0
morningglory; [7]
  Plant response rating, Morningglory: 2
morningglory; [8]
  Morningglory plant response rating: 3
morningglory; [9]
  Morningglory plant response rating: 3
morningglory; [10]
  Morningglory plant response rating: 0
morningglory; Rate 250 g/ha, Postemergence
  Plant response rating (0 to 10; 0 is no effect, 10 is complete control), Morningglory: 3
morningglory; [11]
  Morningglory plant response rating: 8
corn; [5]
  Corn plant response rating: 0
corn; [6]
  Corn plant response rating: 0
corn; [7]
  Plant response rating, Corn: 0
corn; [8]
  Corn plant response rating: 0
corn; [9]
  Corn plant response rating: 0
corn; [10]
  Corn plant response rating: 0
corn; Rate 250 g/ha, Postemergence
  Plant response rating (0 to 10; 0 is no effect, 10 is complete control), Corn: 0
corn; [11]
  Corn plant response rating: 0
rice; [1]
  Rice plant response rating: 0
rice; [2]
  Rice plant response rating: 0
rice; [3]
  Rice plant response rating: 0
rice; [4]
  Rice plant response rating: 0
bamyardgrass; [1]
  Barnyardgrass plant response rating: 0
bamyardgrass; [2]
  Barnyardgrass plant response rating: 0
bamyardgrass; [3]
  Barnyardgrass plant response rating: 0
bamyardgrass; [4]
  Barnyardgrass plant response rating: 0
Wild oat; [5]
  Wild oats plant response rating: 0
Wild oat; [6]
  Wild oats plant response rating: 2
Wild oat; [7]
  Plant response rating, Wild oats: 6
Wild oat; [8]
  Wild oats plant response rating: 0
Wild oat; [9]
  Wild oats plant response rating: 0
Wild oat; [10]
  Wild oats plant response rating: 1
Wild oat; Rate 250 g/ha, Postemergence
  Plant response rating (0 to 10; 0 is no effect, 10 is complete control), Wild oats: 2
Wild oat; [11]
  Wild oats plant response rating: 2
wheat; [5]
  Wheat plant response rating: 0
wheat; [6]
  Wheat plant response rating: 0
wheat; [7]
  Plant response rating, Wheat: 0
wheat; [8]
  Wheat plant response rating: 0
wheat; [9]
  Wheat plant response rating: 0
wheat; [10]
  Wheat plant response rating: 0
wheat; Rate 250 g/ha, Postemergence
  Plant response rating (0 to 10; 0 is no effect, 10 is complete control), Wheat: 0
wheat; [11]
  Wheat plant response rating: 0
pigweed; [5]
  Redroot pigweed plant response rating: 3
pigweed; [6]
  Redroot pigweed plant response rating: 7
pigweed; [7]
  Plant response rating, Redroot pigweed: 8
pigweed; [8]
  Redroot pigweed plant response rating: 0
pigweed; [9]
  Redroot pigweed plant response rating: 0
pigweed; [10]
  Redroot pigweed plant response rating: 6
pigweed; Rate 250 g/ha, Postemergence
  Plant response rating (0 to 10; 0 is no effect, 10 is complete control), Redroot pigweed: 2
pigweed; [11]
  Redroot pigweed plant response rating: 4
Surinam grass; [5]
  B. signalgrass plant response rating: 0
Surinam grass; Preemergence, Rate 250 g/ha, scale 0 to 10, 0 is no effect, 10 is complete control
  B. signalgrass plant response rating: 4
Surinam grass; [7]
  Plant response rating, B. signalgrass: 4
Surinam grass; [8]
  B. signalgrass plant response rating: 0
Surinam grass; Rate 125 g/ha, Postemergence, scale 0 (no effect) to 10 (complete control)
  B. signalgrass plant response rating: 0
Surinam grass; [10]
  B. signalgrass plant response rating: 2
Surinam grass; Rate 250 g/ha, Postemergence
  Plant response rating (0 to 10; 0 is no effect, 10 is complete control), B. signalgrass: 0
Surinam grass; [11]
  B. signalgrass plant response rating: 1
blackgrass; [5]
  Blackgrass plant response rating: 2
blackgrass; [6]
  Blackgrass plant response rating: 8
blackgrass; [7]
  Plant response rating, Blackgrass: 9
blackgrass; [8]
  Blackgrass plant response rating: 0
blackgrass; [9]
  Blackgrass plant response rating: 0
blackgrass; [10]
  Blackgrass plant response rating: 2
blackgrass; Rate 250 g/ha, Postemergence
  Plant response rating (0 to 10; 0 is no effect, 10 is complete control), Blackgrass: 2
blackgrass; [11]
  Blackgrass plant response rating: 5
Smallflower flatsedge; [1]
  S. Flatsedge plant response rating: 0
Smallflower flatsedge; [2]
  S. Flatsedge plant response rating: 0
Smallflower flatsedge; [3]
  S. Flatsedge plant response rating: 0
Smallflower flatsedge; [4]
  S. Flatsedge plant response rating: 0
Purple nutsedge; [5]
  Nutsedge plant response rating: 0
Purple nutsedge; [6]
  Nutsedge plant response rating: 0
Purple nutsedge; [8]
  Nutsedge plant response rating: 0
Purple nutsedge; [9]
  Nutsedge plant response rating: 0
Purple nutsedge; Rate 250 g/ha, Postemergence
  Plant response rating (0 to 10; 0 is no effect, 10 is complete control), Nutsedge: 0
Purple nutsedge; [11]
  Nutsedge plant response rating: 0
velvetleaf; [5]
  Velvetleaf plant response rating: 0
velvetleaf; [6]
  Velvetleaf plant response rating: 2
velvetleaf; [7]
  Plant response rating, Velvetleaf: 7
velvetleaf; [8]
  Velvetleaf plant response rating: 2
velvetleaf; [9]
  Velvetleaf plant response rating: 2
velvetleaf; [10]
  Velvetleaf plant response rating: 0
velvetleaf; Rate 250 g/ha, Postemergence
  Plant response rating (0 to 10; 0 is no effect, 10 is complete control), Velvetleaf: 3
velvetleaf; [11]
  Velvetleaf plant response rating: 3
